# System: A2780 cells
# Test: In-vitro cell proliferation assay (SRB, 72 hours)
# Format: cell-based
# Settings: Homo sapiens, A2780, 72 h, A2780 cells, 72 hours, SRB; read-out: Cell Proliferation (IC50)
smiles,measurement,value
"N#Cc1ccc(NC(=O)N2CCC3(CC2)CC3CNC(=O)c2cc3ccncc3o2)cc1 (stereo not shown) [Example 157, N-[[6-[(4-cyanophenyl)carbamoyl]-6-azaspiro[2.5]octan-2-yl)methyl]furo[2,3-c]pyridine-2-carboxamide]",IC50,2000 nM
"Cc1cccc(CNC(=O)N2CCC3(CC2)CC3CNC(=O)c2cc3ccncc3o2)c1 (stereo not shown) [Example 158, N-[[6-(m-tolylmethylcarbamoyl)-6-azaspiro[2.5]octan-2-yl]methyl]furo[2,3-c]pyridine-2-carboxamide]",IC50,2000 nM
"Cc1ccc(NC(=O)N2CCC3(CC2)CC3CNC(=O)c2cc3ccncc3o2)cc1 (stereo not shown) [Example 159, N-[[6-(p-tolylcarbamoyl)-6-azaspiro[2.5]octan-2-yl]methyl]furo[2,3-c]pyridine-2-carboxamide]",IC50,274 nM
O=C(NCC1CC12CCN(C(=O)NCc1ccccc1)CC2)c1cc2ccncc2o1 (stereo not shown) [Example 160],IC50,2000 nM
"O=C(NCC1CC12CCN(C(=O)NCc1ccccc1F)CC2)c1cc2ccncc2o1 (stereo not shown) [Example 161, N-[[6-[(2-fluorophenyl)methylcarbamoyl]-6-azaspiro[2.5]octan-2-yl]methyl]furo[2,3-c]pyridine-2-carboxamide]",IC50,2000 nM
"Cc1ccc(CNC(=O)N2CCC3(CC2)CC3CNC(=O)c2cc3ccncc3o2)cc1 (stereo not shown) [Example 162, N-[[6-(p-tolylmethylcarbamoyl)-6-azaspiro[2.5]octan-2-yl]methyl]furo[2,3-c]pyridine-2-carboxamide]",IC50,2000 nM
"O=C(NCC1CC12CCN(C(=O)NCc1ccc(F)cc1)CC2)c1cc2ccncc2o1 (stereo not shown) [Example 163, N-[[6-[(4-fluorophenyl)methylcarbamoyl]-6-azaspiro[2.5]octan-2-yl]methyl]furo[2,3-c]pyridine-2-carboxamide]",IC50,2000 nM
"COc1ccccc1CNC(=O)N1CCC2(CC1)CC2CNC(=O)c1cc2ccncc2o1 (stereo not shown) [Example 164, N-[[6-((2-methoxyphenyl)methylcarbamoyl]-6-azaspiro[2.5]octan-2-yl]methyl]furo[2,3-c]pyridine-2-carboxamide]",IC50,1540 nM
"COc1cccc(CNC(=O)N2CCC3(CC2)CC3CNC(=O)c2cc3ccncc3o2)c1 (stereo not shown) [Example 165, N-[[6-[(3-methoxyphenyl)methylcarbamoyl]-6-azaspiro[2.5]octan-2-yl]methyl]furo[2,3-c]pyridine-2-carboxamide]",IC50,2000 nM
"O=C(NCC1CC12CCN(C(=O)NCc1cccc(F)c1)CC2)c1cc2ccncc2o1 (stereo not shown) [Example 166, N-[[6-[(3-fluorophenyl)methylcarbamoyl]-6-azaspiro[2.5]octan-2-yl]methyl]furo[2,3-c]pyridine-2-carboxamide]",IC50,2000 nM
"COc1ccc(CNC(=O)N2CCC3(CC2)CC3CNC(=O)c2cc3ccncc3o2)cc1 (stereo not shown) [Example 167, N-[[6-[(4-methoxyphenyl)methylcarbamoyl]-6-azaspiro[2.5]octan-2-yl]methyl]furo[2,3-c]pyridine-2-carboxamide]",IC50,2000 nM
"O=C(NCC1CC12CCN(C(=O)NCc1ccc(Cl)c(Cl)c1)CC2)c1cc2ccncc2o1 (stereo not shown) [Example 168, N-[[6-[(3,4-dichlorophenyl)methylcarbamoyl]-6-azaspiro[2.5]octan-2-yl]methyl]furo[2,3-c]pyridine-2-carboxamide]",IC50,2000 nM
"O=C(NCC1CC12CCN(C(=O)NC13CC4CC(CC(C4)C1)C3)CC2)c1cc2ccncc2o1 (stereo not shown) [Example 169, N-[[6-(1-adamantylcarbamoyl)-6-azaspiro[2.5]octan-2-yl]methyl]furo[2,3-c]pyridine-2-carboxamide]",IC50,27.8 nM
"O=C(NCC1CC12CCN(C(=O)NCc1ccc(Cl)cc1)CC2)c1cc2ccncc2o1 (stereo not shown) [Example 170, N-[[6-[(4-chlorophenyl)methylcarbamoyl]-6-azaspiro[2.5]octan-2-yl]methyl]furo[2,3-c]pyridine-2-carboxamide]",IC50,2000 nM
"O=C(NCC1CC12CCN(C(=O)NCc1ccccc1Cl)CC2)c1cc2ccncc2o1 (stereo not shown) [Example 171, N-[[6-[(2-chlorophenyl)methylcarbamoyl]-6-azaspiro[2.5]octan-2-yl]methyl]furo[2,3-c]pyridine-2-carboxamide]",IC50,2000 nM
"CCNC(=O)N1CCC2(CC1)CC2CNC(=O)c1cc2ccncc2o1 (stereo not shown) [Example 172, N-[[6-(ethylcarbamoyl)-6-azaspiro[2.5]octan-2-yl)methyl]furo[2,3-c]pyridine-2-carboxamide]",IC50,2000 nM
"O=C(NCC1CC12CCN(C(=O)NCc1ccc(Cl)cc1Cl)CC2)c1cc2ccncc2o1 (stereo not shown) [Example 173, N-[(6-[(2,4-dichlorophenyl)methylcarbamoyl]-6-azaspiro[2.5]octan-2-yl]methyl]furo[2,3-c]pyridine-2-carboxamide]",IC50,2000 nM
"CC1(O)CC(CC(=O)N2CCC3(CC2)CC3CNC(=O)c2cc3ccncc3o2)C1 (stereo not shown) [Example 174, N-([6-[2-(3-hydroxy-3methylcyclobutyl)acetyl]-6-azaspiro[2.5]octan-1-yl]methyl)furo[2,3-c]pyridine-2-carboxamide]",IC50,197 nM
"O=C(Cc1ccccn1)N1CCC2(CC1)CC2CNC(=O)N1Cc2ccncc2C1 (stereo not shown) [Example 176, N-[[6-[2-(2-pyridyl)acetyl]-6-azaspiro[2.5]octan-2-yl]methyl] 1,3-dihydropyrrolo[3,4-c]pyridine-2-carboxamide]",IC50,34.1 nM
O=C(Cc1cccnc1)N1CCC2(CC1)CC2CNC(=O)N1Cc2ccncc2C1 (stereo not shown) [Example 177],IC50,34.4 nM
"N#Cc1cccc(CC(=O)N2CCC3(CC2)CC3CNC(=O)N2Cc3ccncc3C2)c1 (stereo not shown) [Example 178, N-[[6-(2-(3-cyanophenyl)acetyl]-6-azaspiro[2.5]octan-2-yl]methyl]-1,3-dihydropyrrolo(3,4-c]pyridine-2-carboxamide]",IC50,32.3 nM
"O=C(NCC1CC12CCN(C(=O)c1ccc(-n3cncn3)cc1)CC2)c1cc2ccncc2o1 (stereo not shown) [Example 179, N-[[6-[4-(1,2,4-triazol-1-yl)benzoyl]-6-azaspiro[2.5]octan-2-yl]methyl]furo[2,3-c]pyridine-2-carboxamide]",IC50,25.4 nM
"Cc1nccn1CC(=O)N1CCC2(CC1)CC2CNC(=O)c1cc2ccncc2o1 (stereo not shown) [Example 180, N-[[6-[2-(2-methylimidazol-1-yl)acetyl]-6-azaspiro[2.5]octan-2-yl]methyl]furo[2,3-c]pyridine-2-carboxamide]",IC50,2460 nM
"Cc1nn(C)c(C)c1C(=O)N1CCC2(CC1)CC2CNC(=O)c1cc2ccncc2o1 (stereo not shown) [Example 181, N-[[6-(1,3,5-trimethylpyrazole-4-carbonyl)-6-azaspiro[2.5]octan-2-yl]methyl]furo[2,3-c]pyridine-2-carboxamide]",IC50,3.31 nM
"CC(C)(C)NC(=O)N1CCC2(CC1)CC2CNC(=O)c1cc2ccncc2o1 (stereo not shown) [Example 182, N-[[6-(tert-butylcarbamoyl)-6-azaspiro[2.5]octan-2-yl]methyl]furo[2,3-c]pyndine-2-carboxamide]",IC50,2000 nM
"CC(C)NC(=O)N1CCC2(CC1)CC2CNC(=O)c1cc2ccncc2o1 (stereo not shown) [Example 183, N-[[6-(isopropylcarbamoyl)-6-azaspiro[2.5]octan-2-yl]methyl]furo[2,3-c]pyridine-2-carboxamide]",IC50,2000 nM
"O=C(NCC1CC12CCN(C(=O)NCC1CCCCC1)CC2)c1cc2ccncc2o1 (stereo not shown) [Example 184, N-[[6-(cyclohexylmethylcarbamoyl)-6-azaspiro[2.5]octan-2-yl]methyl]furo[2,3-c]pyridine-2-carboxamide]",IC50,2000 nM
"CCCNC(=O)N1CCC2(CC1)CC2CNC(=O)c1cc2ccncc2o1 (stereo not shown) [Example 185, N-[[6-(propylcarbamoyl)-6-azaspiro[2.5]octan-2-yl]methyl]furo[2,3-c]pyridine-2-carboxamide]",IC50,2000 nM
"O=C(NCC1CC12CCN(C(=O)NC1CCCCC1)CC2)c1cc2ccncc2o1 (stereo not shown) [Example 186, N-[[6-(cyclohexylcarbamoyl)-6-azaspiro[2.5]octan-2-yl)methyl]furo[2,3-c]pyridine-2-carboxamide]",IC50,732 nM
"O=C(NCC1CC12CCN(C(=O)Nc1ccccc1)CC2)c1cc2ccncc2o1 (stereo not shown) [Example 187, N-[[6-(phenylcarbamoyl)-6-azaspiro[2.5]octan-2-yl]methyl]furo[2,3-c]pyridine-2-carboxamide]",IC50,2460 nM
"CC(C)N1CCC(CC(=O)N2CCC3(CC2)CC3CNC(=O)N2Cc3ccncc3C2)CC1 (stereo not shown) [Example 188, N-[[6-[2-(1-isopropyl-4-piperidyl)acetyl]-6-azaspiro[2.5]octan-2-yl]methyl]-1,3-dihydropyrrolo[3,4-c]pyridine-2-carboxamide]",IC50,45.3 nM
"O=C(Cc1ccncc1)N1CCC2(CC1)CC2CNC(=O)N1Cc2ccncc2C1 (stereo not shown) [Example 190, N-[[6-[2-(4-pyridyl)acetyl]-6-azaspiro[2.5]octan-2-yl]methyl]-1,3-dihydropyrrolo[3,4-c]pyridine-2-carboxamide]",IC50,50.7 nM
"N#CCC(=O)N1CCC2(CC1)CC2CNC(=O)N1Cc2ccncc2C1 (stereo not shown) [Example 191, N-[[6-(2-cyanoacetyl)-6-azaspiro[2.5]octan-2-yl]methyl]-1,3-dihydropyrrolo[3,4-c]pyridine-2-carboxamide]",IC50,1040 nM
"CC(C)(C)OC(=O)N1CCC2(CC1)CC(CNC(=O)c1cc3cnccc3[nH]1)C2 [Example 193, tert-butyl 2-[(1H-pyrrolo[3,2-c]pyridine-2-carbonylamino)methyl]-7-azaspiro[3.5]nonane-7-carboxylate]",IC50,2000 nM
"CC(C)(C)OC(=O)N1CCC2(CC1)CC(CNC(=O)c1cc3ccncc3o1)C2 [Example 194, tert-butyl 2-[(furo[2,3-c]pyridine-2-carbonylamino)methyl]-7-azaspiro[3.5]nonane-7-carboxylate]",IC50,2000 nM
"CC1(CC(=O)N2CCC3(CC2)CC3CNC(=O)c2cc3ccncc3o2)COC1 (stereo not shown) [Example 195, N-[[6-[2-(3-methyloxetan-3-yl)acetyl]-6-azaspiro[2.5]octan-2-yl]methyl]furo[2,3-c]pyridine-2-carboxamide]",IC50,218 nM
"O=C(CC1CCCCC1)N1CCC2(CC1)CC2CNC(=O)N1Cc2ccncc2C1 (stereo not shown) [Example 196, N-[[6-(2-cyclohexylacetyl)-6-azaspiro[2.5]octan-2-yl]methyl]-1,3-dihydropyrrolo[3,4-c]pyridine-2-carboxamide]",IC50,3.67 nM

# From US10730889B2, “Amido spirocyclic amide and sulfonamide derivatives” (Forma TM, LLC, priority 2012, dated 2020)
